This is an account of results in patent US20260167656A1, “PHOSPHORAMIDATE COMPOUNDS AND USES THEREOF” (ALLORION THERAPEUTICS INC, priority 2022, published 2026).

The subject of assay [1] is non-small cell lung cancer cell line H460. The assay is described as follows: In vitro human cancer cell line cytotoxicity (proliferation) assay in H460, CellTiter-Glo, 72 hours. Format: cell-based. The following applies: DMSO condition (no AKR1C3 inhibitor), read-out: CTG H460: Avg IC50 (nM) [Assay Condition: DMSO]. In short, it runs like this: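 H460 cells were seeded at 3×10^3 per well and grown 24 h at 37 °C, 5% CO2 before compound addition from 10 mM DMSO stocks. After 72 h further incubation, viability was measured by CellTiter-Glo, and IC50 values in nM were derived from the proliferation data.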

For assay [2] the test system is unchanged. The assay is described as follows: H460 proliferation assay in the presence of 3 uM ASP9521 (AKR1C3 specific inhibitor). The settings on record: H460 cells, CellTiter-Glo, 72 hours, in the presence of 3 uM ASP9521 added 4 hours prior to compounds; read-out: CTG H460: Avg IC50 (nM) [Assay Condition: ASP9521]. Format: cell-based, human. In short, it runs like this: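 H460 cells pre-incubated 24 h, then exposed to compounds for 72 h at 37 °C, 5% CO2. Viability read by CellTiter-Glo. ASP9521 (3 uM, AKR1C3 inhibitor) added 4 h before compounds.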
For orientation: In ATP-based viability assays light output follows the ATP content of the culture.

[3] abbreviates: Homo sapiens, NCI-H460, H460 cells.
[4] abbreviates: Homo sapiens, NCI-H460, 72 h, H460 cells.

As to `Cc1nsc(-c2cc(Oc3c([N+](=O)[O-])ccc4c3CC[C@@H]4OP(=O)(N3CC3)N3CC3)ccc2F)n1` [Example 359], the figures for the IC50 in assay [1] (setting [3]) and in assay [2] were less than 10 nM and 1470 nM, respectively.

On to `CN(C)C(=O)c1cccc(Oc2c([N+](=O)[O-])ccc3c2OCCC3OP(=O)(N2CC2)N2CC2)c1` (stereo not shown) [Example 128], for which the IC50 (usually the concentration at which inhibition is half-maximal) in assay [1] (setting [4]) was less than 10 nM; in assay [2], 491 nM.

Regarding `O=[N+]([O-])c1cc2c(cc1Oc1ccc(-c3ccccc3)nc1)C(OP(=O)(N1CC1)N1CC1)CC2` (stereo not shown) [Example 192], the IC50 was less than 10 nM in assay [1] (setting [4]) and 1090 nM in assay [2].

As to `CC(OP(=O)(N1C[C@@H]1C)N1C[C@@H]1C)c1ccc([N+](=O)[O-])c(Oc2ccc(-c3ccc(F)cn3)c(F)c2)c1` (stereo partly shown) [Example 223], the concentration for half-maximal inhibition (IC50) in assay [1] (H460 cells) is less than 10 nM; in assay [2], 2590 nM.

With `CN1CCc2ccc(Oc3cc4c(cc3[N+](=O)[O-])OCCC4OP(=O)(N3CC3)N3CC3)cc2C1=O` (stereo not shown) [Example 200], the IC50 is 10 to 50 nM in assay [1] (setting [4]) and 434 nM in assay [2].

For `O=[N+]([O-])c1cc2c(cc1Oc1ccccc1-c1ccccc1)C(OP(=O)(N1CC1)N1CC1)CC2` (stereo not shown) [Example 197], the figures for the IC50 in assay [1] (H460 cells) and in assay [2] were no less than 100 nM and 1760 nM, respectively.

Consider `O=[N+]([O-])c1ccc2c(c1Oc1ccc(F)c(-n3cccn3)c1)CC[C@@H]2OP(=O)(N1CC1)N1CC1` (single isomer, unassigned) [Example 403], for which the IC50 in assay [1] (setting [4]) is less than 10 nM; in assay [2], 1460 nM.

Turning to `Cc1nncn1-c1cccc(Oc2c([N+](=O)[O-])ccc3c2CC[C@@H]3OP(=O)(N2CC2)N2CC2)c1` [Example 434], the IC50 in assay [1] (setting [4]) is less than 10 nM; in assay [2], 1140 nM.

On to `Cc1ncc(-c2cccc(Oc3c([N+](=O)[O-])ccc4c3CC[C@@H]4OP(=O)(N3CC3)N3CC3)c2)[nH]1` [Example 344], for which the IC50 in assay [1] (setting [4]) is less than 10 nM; in assay [2] it was 1510 nM.

Take `O=[N+]([O-])c1cc2c(cc1Oc1ccc(-c3ccc(F)cc3)cc1)C(OP(=O)(N1CC1)N1CC1)CC2` (stereo not shown) [Example 144]: the figures for the IC50 in assay [1] (setting [4]) and in assay [2] were less than 10 nM and 347 nM, respectively.

`Cn1nc(F)cc1-c1cccc(Oc2c([N+](=O)[O-])ccc3c2CCC3OP(=O)(N2CC2)N2CC2)c1` (stereo not shown) [Example 374]: the IC50 in assay [1] (H460 cells) is less than 10 nM; in assay [2] it was 468 nM.

Regarding `Cc1nccc(-c2ccc(Oc3c([N+](=O)[O-])ccc4c3CC[C@H]4OP(=O)(N3CC3)N3CC3)cc2)n1` [Example 286], the IC50 in assay [1] (H460 cells) was less than 10 nM; in assay [2] it was 1870 nM.

Regarding `O=[N+]([O-])c1ccc2c(c1Oc1cccc(-c3ccc(F)cn3)c1)CCC2OP(=O)(N1CC1)N1CC1` (stereo not shown) [Example 322], the IC50 in assay [1] (H460 cells) was less than 10 nM; in assay [2], 1610 nM.

As to `CC(C)Oc1cccc(Oc2c([N+](=O)[O-])ccc3c2CC[C@H]3OP(=O)(N2CC2)N2CC2)c1` [Example 453], the figures for the IC50 in assay [1] (H460 cells) and in assay [2] were less than 10 nM and 819 nM, respectively.

In the case of `O=[N+]([O-])c1ccc2c(c1Oc1cccc(OC(F)F)c1)CC[C@@H]2OP(=O)(N1CC1)N1CC1` [Example 457], the IC50 was less than 10 nM in assay [1] (H460 cells) and 768 nM in assay [2].

For the compound `CN(C)C(=O)c1cccc(Oc2c([N+](=O)[O-])ccc3c2CCC3OP(=O)(N2CC2)N2CC2)c1` (single isomer, unassigned) [Example 33], the IC50 in assay [1] (H460 cells) was less than 10 nM; in assay [2] it was 476 nM.

Take `O=[N+]([O-])c1ccc2c(c1Oc1cccc(OC(F)F)c1)CC[C@H]2OP(=O)(N1CC1)N1CC1` [Example 458]: the IC50 in assay [1] (H460 cells) is less than 10 nM; in assay [2] it was 506 nM.

As to `O=[N+]([O-])c1ccc2c(c1Oc1cccc(-n3cc(F)cn3)c1)CCC2OP(=O)(N1CC1)N1CC1` (stereo not shown) [Example 82], the IC50 was less than 10 nM in assay [1] (setting [4]) and 181 nM in assay [2].

For the compound `O=[N+]([O-])c1ccc2c(c1Oc1ccc3ncccc3c1)CC[C@@H]2OP(=O)(N1CC1)N1CC1` [Example 400], the values for the IC50 in assay [1] (setting [4]) and in assay [2] were less than 10 nM and 452 nM, respectively.

Consider `O=[N+]([O-])c1cc2c(cc1Oc1ccc(-c3ccncc3)cc1)C(OP(=O)(N1CC1)N1CC1)CC2` (stereo not shown) [Example 198], for which the IC50 in assay [1] (setting [4]) is less than 10 nM; in assay [2], 2230 nM.

As to `N#Cc1ccc(-c2ccc(Oc3c([N+](=O)[O-])ccc4c3CCC4OP(=O)(N3CC3)N3CC3)cc2)nc1` (stereo not shown) [Example 288], the results for the IC50 in assay [1] (H460 cells) and in assay [2] were less than 10 nM and 1940 nM, respectively.

For the compound `O=[N+]([O-])c1ccc2c(c1Oc1ccc(F)c(-n3ccc(F)n3)c1)CC[C@H]2OP(=O)(N1CC1)N1CC1` [Example 443], the IC50 in assay [1] (setting [4]) was less than 10 nM; in assay [2] it was 571 nM.

Regarding `O=[N+]([O-])c1ccc2c(c1Oc1ccc(F)c(-c3ncccn3)c1)CC[C@@H]2OP(=O)(N1CC1)N1CC1` [Example 327], the IC50 is less than 10 nM in assay [1] (setting [4]) and 1710 nM in assay [2].

As to `O=[N+]([O-])c1cc2c(cc1Oc1ccc(-c3ccccc3)cc1)C(OP(=O)(N1CC1)N1CC1)CC2` (single isomer, unassigned) [Example 153], the IC50 in assay [1] (H460 cells) was less than 10 nM; in assay [2] it was 477 nM.

For the compound `Cc1coc(-c2cccc(Oc3c([N+](=O)[O-])ccc4c3CC[C@@H]4OP(=O)(N3CC3)N3CC3)c2)n1` [Example 361], the IC50 in assay [1] (setting [4]) was 10 to 50 nM; in assay [2], 3910 nM.

In the case of `CN(C)C(=O)c1cccc(Oc2c([N+](=O)[O-])ccc3c2CCC3OP(=O)(N2CC2)N2CC2)c1` (single isomer, unassigned) [Example 32], the IC50 is less than 10 nM in assay [1] (setting [4]) and 145 nM in assay [2].

Turning to `COc1ccc(-c2ccc(Oc3cc4c(cc3[N+](=O)[O-])CCC4OP(=O)(N3CC3)N3CC3)cc2)cc1` (stereo not shown) [Example 184], the IC50 in assay [1] (setting [4]) was 10 to 50 nM; in assay [2], 2640 nM.

Turning to `CN1CCc2ccc(Oc3cc4c(cc3[N+](=O)[O-])CCC4OP(=O)(N3CC3)N3CC3)cc2C1=O` (stereo not shown) [Example 167], the IC50 in assay [1] (H460 cells) was 10 to 50 nM; in assay [2] it was 3150 nM.

Take `O=[N+]([O-])c1cc2c(cc1Oc1ccc(-c3ccc(Cl)cc3)cc1)C(OP(=O)(N1CC1)N1CC1)CC2` (stereo not shown) [Example 182]: the IC50 in assay [1] (H460 cells) is no less than 100 nM; in assay [2], greater than 10000 nM.

Regarding `CN(C)C(=O)c1cccc(Oc2cc3c(cc2[N+](=O)[O-])CCC3OP(=O)(N2CC2)N2CC2)c1` (stereo not shown) [Example 147], the values for the IC50 in assay [1] (H460 cells) and in assay [2] were less than 10 nM and 311 nM, respectively.

Turning to `C[C@@H](OP(=O)(N1CC1)N1CC1)c1cc2cc(Oc3cncc(-c4ccccc4)c3)c([N+](=O)[O-])cc2o1` [Example 567], the values for the IC50 in assay [1] (H460 cells) and in assay [2] were less than 10 nM and 2110 nM, respectively.

`O=[N+]([O-])c1ccc2c(c1Oc1ccc(F)c(-c3cn[nH]c3)c1)CC[C@@H]2OP(=O)(N1CC1)N1CC1` [Example 370]: the 50% inhibitory concentration (IC50) in assay [1] (setting [4]) is less than 10 nM; in assay [2], 967 nM.

Regarding `O=[N+]([O-])c1ccc2c(c1Oc1cc(F)cc(-c3ncc(F)cn3)c1)CC[C@@H]2OP(=O)(N1CC1)N1CC1` [Example 364], the values for the IC50 in assay [1] (setting [4]) and in assay [2] were 10 to 50 nM and 4030 nM, respectively.

`O=[N+]([O-])c1ccc2c(c1Oc1cccc(-c3cccnc3)c1)CC[C@H]2OP(=O)(N1CC1)N1CC1` [Example 309]: the IC50 in assay [1] (setting [4]) is 10 to 50 nM; in assay [2], 3070 nM.

`O=[N+]([O-])c1ccc2c(c1Oc1ccc(-c3ncc(F)cn3)c(F)c1)CC[C@H]2OP(=O)(N1CC1)N1CC1` [Example 269, (R)-4-(3-fluoro-4-(5-fluoropyrimidin-2-yl)phenoxy)-5-nitro-2,3-dihydro-1H-inden-1-yl di(aziridin-1-yl)phosphinate]: the IC50 in assay [1] (setting [4]) was 10 to 50 nM; in assay [2], 761 nM.

On to `O=[N+]([O-])c1ccc2c(c1Oc1ccc(O)c(-c3ccc(F)cn3)c1)CCC2OP(=O)(N1CC1)N1CC1` (stereo not shown) [Example 334], for which the results for the IC50 in assay [1] (H460 cells) and in assay [2] were less than 10 nM and 824 nM, respectively.

Consider `O=C(NC1CCC1)c1ccc(Oc2cc3c(cc2[N+](=O)[O-])CCC3OP(=O)(N2CC2)N2CC2)cc1` (stereo not shown) [Example 516], for which the IC50 is less than 10 nM in assay [1] (H460 cells) and 778 nM in assay [2].

On to `Cn1cnc2ccc(Oc3cc4c(cc3[N+](=O)[O-])CCC4OP(=O)(N3CC3)N3CC3)cc2c1=O` (stereo not shown) [Example 194], for which the IC50 in assay [1] (setting [4]) was 10 to 50 nM; in assay [2], 1290 nM.

For `O=[N+]([O-])c1ccc2c(c1Oc1ccc(-c3cnn(C4CC4)c3)cc1)CCC2OP(=O)(N1CC1)N1CC1` (stereo not shown) [Example 78], the IC50 in assay [1] (H460 cells) was no less than 100 nM; in assay [2], 1150 nM.

For `O=[N+]([O-])c1cc2oc(COP(=O)(N3CC3)N3CC3)cc2cc1Oc1ccc(-c2cccnc2)cc1` [Example 540], the IC50 in assay [1] (setting [4]) is less than 10 nM; in assay [2] it was 1830 nM.

With `Cn1cc(-c2cccc(Oc3c([N+](=O)[O-])ccc4c3CCC4OP(=O)(N3CC3)N3CC3)c2)cn1` (single isomer, unassigned) [Example 77], the results for the IC50 in assay [1] (H460 cells) and in assay [2] were less than 10 nM and 1890 nM, respectively.

`CN(C)C(=O)c1ccc(Oc2c([N+](=O)[O-])ccc3c2OCCC3OP(=O)(N2CC2)N2CC2)cc1` (single isomer, unassigned) [Example 131]: the figures for the IC50 in assay [1] (H460 cells) and in assay [2] were less than 10 nM and 314 nM, respectively.

Regarding `O=[N+]([O-])c1ccc2c(c1Oc1ccc3nccn3c1)CC[C@H]2OP(=O)(N1CC1)N1CC1` [Example 383], the IC50 in assay [1] (setting [4]) is 10 to 50 nM; in assay [2] it was 4240 nM.

Take `O=[N+]([O-])c1ccc2c(c1Oc1ccc(F)c(-c3ccc(F)cc3)c1)CC[C@@H]2OP(=O)(N1CC1)N1CC1` [Example 307]: the 50% inhibitory concentration (IC50) is less than 10 nM in assay [1] (setting [3]) and 2360 nM in assay [2].
